# Columns and labels:
# ER4 cells = experiment: Apoptosis by PARP cleavage and BIM induction in ER4 cells; format: cell-based, human; conditions: 24 hour exposure; AD57 1 micromolar, AD80 1 micromolar
# Procedure: FIG. 22. Induction of apoptosis by combined EGFR and AXL inhibition. […] 24-hour drug exposure. Apoptosis measured by induction of PARP cleavage and BIM induction.
# HCC827 ER1-ER5 sublines = experiment: Cell viability assay (CellTiterGLO), erlotinib resistant HCC827 ER1-ER5 sublines; conditions: for effect of single-agent treatment on cell viability: 1 μM alone, HCC827 ER cells; for effect on sensitivity to concurrent erlotinib treatment: AXL inhibitor 1 μM plus erlotinib, each ER subline
# Procedure: (§8) Cell growth and viability assays. Cells were seeded at a density of 3000 cells/well in 96-well plates in RPMI 1640 containing 10% FBS overnight, then treated with respective agents for an additional 3 days. Viable cell numbers were determined using CellTiterGLO or MTS assay kit, as indicated in the descriptions of the drawings, according to the manufacturer's protocols (Promega, Madison, Wis., USA). Each assay consisted of 3 replicate wells and was repeated at least twice. Data were expressed as the percentage survival of control calculated from the absorbance, corrected for background.
# H3255 cells = experiment: Cell viability, parental H3255 cells; format: cell-based; conditions: Homo sapiens, NCI-H3255, read-out: erlotinib IC50, EGFR L858R
# Procedure: as §8
# H3255 ER sublines = experiment: Cell viability, erlotinib-resistant H3255 ER sublines; format: cell-based, human; conditions: for effect on sensitivity to concurrent erlotinib treatment: H3255 ER sublines
# From the text: Establishment of erlotinib-resistant subclones.
# (§1) Cell growth and viability assays.
# PC9 cells = experiment: Cell viability (CellTiterGLO), PC9 cells; format: cell-based; conditions: Homo sapiens, PC-9, read-out: erlotinib IC50, EGFR exon 19-deletion mutant
# From the text: (§2) To address these questions, we generated cDNA constructs that encode either wild type (WT) AXL or a kinase-impaired mutant of AXL in which a key conserved lysine within the kinase domain was changed to arginine (K567R).
# as §1
# HCC827 xenograft tumors = test system: HCC827 xenograft tumors
# Procedure: (§3) Tumorigenesis assays. Human lung cancer cells (as indicated) were injected subcutaneously into the flanks of CB17 SCID mice (Taconic). […] Tumor measurements were made on days indicated and expressed as described in the descriptions of the drawings. All animal experiments were performed in compliance with the guidelines of the Research Animal Resource Center of the Memorial Sloan-Kettering Cancer Center.
# HCC827 ER1 tumors = experiment: HCC827 ER1 xenograft tumors treated with erlotinib; format: in vivo, mice; conditions: ER1 tumors transduced with non-target shRNA, 12.5 mg/kg/day
# Procedure: as §3
# parental HCC827 cells [1] = experiment: Western blot of signaling biomarkers, parental HCC827 cells; format: cell-based, human; conditions: erlotinib 100 nM
# Procedure: (§4) Western blot analysis. Cells were serum starved overnight and whole cell lysates were prepared using 10% TCA lysis or RIPA buffer and clarified by centrifugation. Proteins were separated by 10% SDS-PAGE gel and transferred onto PVDF membranes (Invitrogen) for Western blot analysis. After primary antibody incubation overnight, washing and incubation with secondary antibodies, blots were developed with a chemiluminescence system (Pierce).
# HCC827 ER1 and ER2 cells = experiment: Western blot of signaling biomarkers, HCC827 ER1 and ER2 cells; format: cell-based, human; conditions: for erlotinib effects (decreased pEGFR, pERK, pAKT, pRelA, increased cleaved Parp) with concurrent AXL inhibitor: concurrent treatment with erlotinib, 48 h
# Procedure: as §4
# HCC827 tumors = experiment: Western blot of signaling biomarkers in HCC827 xenograft tumors; format: in vivo, mice
# Procedure: as §4, §3
# HCC827ER cells = experiment: Combination index (CI) analysis with erlotinib; format: cell-based, human; conditions: ER1 and ER4 sublines; 1:1 ratio; CI < 1 = synergism
# From the text: Combination index (CI) analysis. […] The fraction affected (Fa) (i.e., Fa of 0.25 is equivalent to 75% viable cells) and CI values processed using CalcuSyn software (Biosoft, Cambridge, UK). CI values of less than 1, 1, and greater than 1 were taken as synergism, additive effect, and antagonism, respectively.
# HCC827 cells = experiment: Cell viability assay (CellTiterGLO), parental HCC827 cells; conditions: 1 μM alone
# Procedure: Cell lines and reagents. The human lung cancer cell lines were purchased from the American Type Culture Collection except for H3255, PC-9 cells were generously provided. Cells were grown in RPMI 1640 supplemented with 10% FBS and 1× Antibiotic/Antimycotic (Invitrogen) and were in the logarithmic growth phase at the initiation of all experiments. […] Drugs were dissolved in DMSO at 10 mM and stored at −20° C. The final DMSO concentration in all experiments was <0.1% in medium. All antibodies were purchased from Cell Signaling (Boston, Mass.) except the anti-AXL and anti-phospho-AXL and anti-GAS6 antibodies, which were purchased from R&D Systems (Minneapolis, Minn.).
# as §8
# HCC827 ER3 cells = experiment: Migration and adhesion, HCC827 ER3 cells; format: cell-based, human; conditions: XL-880 1 μM (FIG. 4c-d)
# Procedure: (§5) [Vuoriluoto, K. et al. Oncogene 30, 1436-1448 (2011)] […] Together, the data support a possible role for an EMT that is marked by vimentin overexpression in the development of acquired EGFR TKI resistance that is driven by AXL in this model of human EGFR mutant lung cancer.
# (§6) Migration and adhesion studies. 180,000 cells were plated onto 3.5 cm cell culture dishes. At 30 minutes, the dishes were washed and cells were fixed and stained for counting. Average cell numbers of 5 random 100× fields under light microscope are presented with ±SEM. Migration: 10,000 cells in 200 μl medium without FBS were placed in the upper chamber of transwells (6.5 mm diameter, 8 μm pore size polycarbonate membrane, Corning), and the lower chamber filled with 1 ml of medium with 10% FBS supplemented with or without the indicated drug treatments. After incubation for 16 hours, non-migrating cells were removed with cotton swabs, and the cells that migrated into the lower surface of the filters were stained with crystal violet. Cells were counted under a microscope, and triplicate results are expressed as means±SEM.
# parental HCC827 cells [2] = experiment: Migration and adhesion, parental HCC827 cells; format: cell-based, human; conditions: XL-880 1 μM (FIG. 4c-d)
# Procedure: as §5, §6
# [3] = test system: HCC827 cells expressing AXL constructs; experiment: Viability of HCC827 cells expressing AXL cDNA constructs; format: cell-based, human
# From the text: as §2, §1
# (§7) AXL cDNA and overexpression studies. The AXL gene with an HA tag at the C-terminus was amplified by overlapping PCR using cDNA generated from ER3 cells and cloned into pcDNA3.1 (+) vector. Amino acid changes (K567R or L620M) were introduced using the Strategene QuickChange Mutagenesis Kit, according to the manufacturer's protocol. The accuracy of the constructs was confirmed by DNA sequencing. Cells were transfected with the AXL-expressing vectors or empty vector as a control by using FuGENE HD reagent according to the manufacturer's protocol (Roche Applied Sciences, Indianapolis, Ind., USA). Stable HCC827 subclones resistant to the selection antibiotic, 500 μg/ml G418 were generated 24 hours post-transfection. Empty-vector expressing HCC827 cells were generated as a control. AXL protein expression was detected by using anti-HA probe (Santa Cruz Biotechnology).
# AXL = experiment: pAXL western blot in HCC827 cells expressing AXL L620M; format: cell-based, human
# Procedure: Cancer research 69, 8009-8016 (2009); Yun, C. H. et al. PNAS 105, 2070-2075 (2008)] (FIG. 18).
# as §4, §7
# [4] = ER4 cells, 0.1, 1, 10 micromolar in combination with erlotinib
compound,measurement,setting,value
CC(C)n1nc(-c2ccc(NC(=O)Nc3cccc(C(F)(F)F)c3)cc2)c2c(N)ncnc21 [AD57],apoptosis (PARP cleavage and BIM induction) combined with erlotinib,ER4 cells,enhances apoptosis
same,effect on sensitivity to erlotinib,HCC827 ER1-ER5 sublines; [4],confer dose-dependent sensitivity to erlotinib
CC(C)n1nc(-c2ccc(NC(=O)Nc3cc(C(F)(F)F)ccc3F)cc2)c2c(N)ncnc21 [AD80],apoptosis (PARP cleavage and BIM induction) combined with erlotinib,ER4 cells,enhances apoptosis
same,effect on sensitivity to erlotinib,HCC827 ER1-ER5 sublines; [4],confer dose-dependent sensitivity to erlotinib
"C[C@@H](Oc1cc(-c2cnn(C3CCNCC3)c2)cnc1N)c1c(Cl)ccc(F)c1Cl [Crizotinib, crizotinib]",effect on sensitivity to erlotinib,"HCC827 ER1-ER5 sublines; ER cells, at 10 μM, in combination with erlotinib",confers dose-dependent sensitivity to erlotinib
"C#Cc1cccc(Nc2ncnc3cc(OCCOC)c(OCCOC)cc23)c1 [Erlotinib, erlotinib]",IC50,H3255 cells,~0.015 µM
same,IC50,"H3255 ER sublines; Homo sapiens, NCI-H3255, read-out: erlotinib IC50, 2 isogenic erlotinib-resistant sublines of H3255 (EGFR L858R)",> 1 µM
same,IC50,PC9 cells,~0.025 µM
same,Maximum Volume Reduction (% change from baseline),"HCC827 xenograft tumors; erlotinib 25 mg/kg, 10 tumors per group, average",−69 % change from baseline
same,Time to Maximum Volume Reduction (weeks),"HCC827 xenograft tumors; erlotinib 25 mg/kg, median ± SEM",5 ± 0.2 weeks
same,tumor response to erlotinib treatment,"HCC827 xenograft tumors; parental HCC827 tumors, 12.5 mg/kg/day",sensitive
same,tumor response to erlotinib treatment,HCC827 ER1 tumors,erlotinib-resistant
same,"effect on pERK, pAKT, pRelA and Parp cleavage",parental HCC827 cells [1],"decreased pERK, pAKT and pRelA (a marker of NF-kB signaling) and increased Parp cleavage"
same,effect on pEGFR,parental HCC827 cells [1]; parental HCC827,decreased pEGFR
same,effect on pEGFR,"HCC827 ER1 and ER2 cells; erlotinib 100 nM, ER1 and ER2 sublines",decreased pEGFR
same,"effect on pEGFR, pErbB3 and pMET in tumors","HCC827 tumors; sensitive tumors at 48 h and resistant tumors at each dose, vs vehicle","decreased levels of pEGFR, pErbB3, and pMET"
same,"effect on pAKT, pERK, pRelA and Parp cleavage in tumors","HCC827 tumors; sensitive tumors, 48 h treatment, 12.5 mg/kg/day","decreased pAKT, pERK, and pRelA and increased Parp cleavage"
"S=C(NCc1ccc2c(c1)OCO2)N1CCN(c2ncnc3c2oc2ccccc23)CC1 [MP-470, amuvatinib]",effect on sensitivity to concurrent erlotinib treatment,H3255 ER sublines,restored sensitivity to concurrent erlotinib treatment
same,synergy with concurrent erlotinib treatment (combination index),HCC827ER cells,synergistic
same,"erlotinib effects (decreased pEGFR, pERK, pAKT, pRelA, increased cleaved Parp) with concurrent AXL inhibitor",HCC827 ER1 and ER2 cells,observed only upon concurrent treatment
same,effect of single-agent treatment on cell viability,HCC827 cells,did not significantly affect the viability
same,effect of single-agent treatment on cell viability,HCC827 ER1-ER5 sublines,did not significantly affect the viability
same,effect on sensitivity to concurrent erlotinib treatment,HCC827 ER1-ER5 sublines,restored sensitivity to concurrent erlotinib treatment
"COc1cc2c(Oc3ccc(NC(=O)C4(C(=O)Nc5ccc(F)cc5)CC4)cc3F)ccnc2cc1OCCCN1CCOCC1 [XL-880, foretinib]",effect on sensitivity to concurrent erlotinib treatment,H3255 ER sublines,restored sensitivity to concurrent erlotinib treatment
same,effect on migration and adhesion,HCC827 ER3 cells,inhibited migration and adhesion
same,effect on migration and adhesion,parental HCC827 cells [2],had no effect
same,"erlotinib effects (decreased pEGFR, pERK, pAKT, pRelA, increased cleaved Parp) with concurrent AXL inhibitor",HCC827 ER1 and ER2 cells,observed only upon concurrent treatment
same,ability to restore erlotinib sensitivity,"[3]; XL-880 1 μM, HCC827 cells expressing AXL L620M",abrogated the ability
same,effect on erlotinib resistance induced by overexpression of WT AXL,"[3]; XL-880 1 μM, HCC827 cells overexpressing WT AXL",reversed
same,change of IC50 for XL-880,[3]; expression of AXL L620M gatekeeper mutant,significantly increased
same,ability to decrease pAXL,AXL,blocked the ability
same,effect of single-agent treatment on cell viability,HCC827 cells,did not significantly affect the viability
same,effect of single-agent treatment on cell viability,HCC827 ER1-ER5 sublines,did not significantly affect the viability
same,effect on sensitivity to concurrent erlotinib treatment,HCC827 ER1-ER5 sublines,restored sensitivity to concurrent erlotinib treatment

# Reference: US20140121126A1, “METHODS OF DETECTING AXL AND GAS6 IN CANCER PATIENTS” (Memorial Sloan-Kettering Cancer Center, priority 2012, published 2014)
